What was measured:
[1] = design: method as in Brearley et al., 2017; details: healthy volunteers; ref Brearley et al., 2017; cited from earlier work
F508del CFTR [2] = biological target: T1, F508del CFTR (Homo sapiens, UniProt P13569, DEL508-508); assay: CSE-MEM assay (cell surface expression DiscoverX assay); type: cell-based; design: University of North Carolina; host or cells: primary human bronchial epithelial cells, F508del/F508del donors; details: 24 h treatment; for % F508del PM Expression vs control: VX809 rescue = 100%
T1 sequence (P13569 with tags, fused parts or gaps DEL508-508): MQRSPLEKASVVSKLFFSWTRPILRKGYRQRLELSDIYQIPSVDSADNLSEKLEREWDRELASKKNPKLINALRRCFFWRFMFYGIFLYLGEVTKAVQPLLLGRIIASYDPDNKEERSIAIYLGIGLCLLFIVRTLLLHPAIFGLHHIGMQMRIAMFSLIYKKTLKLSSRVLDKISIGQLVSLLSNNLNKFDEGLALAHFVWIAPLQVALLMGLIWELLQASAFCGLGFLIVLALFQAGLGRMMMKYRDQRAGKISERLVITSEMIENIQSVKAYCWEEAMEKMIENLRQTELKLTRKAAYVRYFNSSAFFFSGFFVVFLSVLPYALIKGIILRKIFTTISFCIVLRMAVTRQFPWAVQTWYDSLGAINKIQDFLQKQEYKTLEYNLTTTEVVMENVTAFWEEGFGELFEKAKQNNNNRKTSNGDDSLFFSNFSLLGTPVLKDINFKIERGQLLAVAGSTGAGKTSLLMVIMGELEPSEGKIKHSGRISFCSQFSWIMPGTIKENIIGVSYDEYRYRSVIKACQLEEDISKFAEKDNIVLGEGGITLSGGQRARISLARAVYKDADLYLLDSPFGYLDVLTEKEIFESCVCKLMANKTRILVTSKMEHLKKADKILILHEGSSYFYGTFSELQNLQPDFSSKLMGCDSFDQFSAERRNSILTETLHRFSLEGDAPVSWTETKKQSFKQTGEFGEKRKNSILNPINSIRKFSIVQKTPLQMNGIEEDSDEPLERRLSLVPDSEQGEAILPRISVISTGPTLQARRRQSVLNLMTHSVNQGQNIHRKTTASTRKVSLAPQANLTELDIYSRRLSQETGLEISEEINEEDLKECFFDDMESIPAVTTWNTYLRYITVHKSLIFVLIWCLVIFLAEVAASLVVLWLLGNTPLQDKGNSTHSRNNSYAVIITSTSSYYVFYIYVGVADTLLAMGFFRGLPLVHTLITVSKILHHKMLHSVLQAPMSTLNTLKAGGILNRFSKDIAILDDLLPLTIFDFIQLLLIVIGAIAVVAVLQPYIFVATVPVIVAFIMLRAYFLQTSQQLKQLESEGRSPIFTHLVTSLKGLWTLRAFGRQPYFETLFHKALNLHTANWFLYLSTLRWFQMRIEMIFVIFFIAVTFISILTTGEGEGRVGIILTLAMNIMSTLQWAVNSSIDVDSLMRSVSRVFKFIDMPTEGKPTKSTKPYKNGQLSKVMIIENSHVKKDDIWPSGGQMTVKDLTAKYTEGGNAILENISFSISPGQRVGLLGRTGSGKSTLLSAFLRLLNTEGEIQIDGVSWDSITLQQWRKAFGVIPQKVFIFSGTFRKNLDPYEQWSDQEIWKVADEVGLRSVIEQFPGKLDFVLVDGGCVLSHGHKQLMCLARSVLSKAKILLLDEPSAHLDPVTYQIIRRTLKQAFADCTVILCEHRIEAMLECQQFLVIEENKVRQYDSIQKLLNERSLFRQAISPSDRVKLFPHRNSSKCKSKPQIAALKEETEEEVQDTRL
Method: Twenty-five microliters of cell plating reagent 5 (DiscoverX, 93-0563R5A) containing 5000 U2OS EA-MEM F508del_CFTR cells per well was added in white 384 well plates (Greiner, 781080) on day 1 and incubated overnight at 37°C, 5% CO2. On day 2, medium was refreshed and compounds (1 μl of 26 × concentrated solution) were added to the cells. All compounds used during the experiment were first dissolved in DMSO to a 10 mM solution which was then diluted to a 26 × solution in the medium just prior to the experiment. Cells were incubated with compounds for 20–24 h at 37°C, 5% CO2. On day 3, the plates were first incubated at room temperature for 1 h. After 1 h the plates were washed two times with PBS +/+ (Gibco, 14040-091) and 30 μL PBS +/+ (Gibco, 14040-091) was added after the last wash step. Then 15 μL of substrate (DiscoverX, 93-0247: 1 part Flash cell assay buffer + 4 parts Flash substrate) was added per well. After 1 h of incubation at room temperature in the dark, the luminescence signal was read on an EnVision plate reader (PerkinElmer).
(§1) To discover novel correctors several high throughput screening campaigns were performed using cell based assays measuring plasma membrane expression of the F508del CFTR protein. The CSE-HRP system used CFBE41O-cells, a lung epithelial cell line, stably transfected with F508del CFTR tagged with HRP in the fourth extracellular loop ([Veit et al., 2014]). The CSE-MEM system, used U2OS cells, an osteosarcoma epithelial cell line, stably transfected with F508del CFTR tagged with a Pro-link moiety at the C-terminal and a plasma membrane located EA (enzyme acceptor) moiety. The latter cells were created by DiscoverX and the assay further optimized to allow robust evaluation in a high throughput manner.
For screening, cells were pre-incubated with compound for 24 h prior to read-out to allow sufficient time for de novo synthesis, and cellular trafficking of F508del-CFTR to reach steady state levels at the plasma membrane. […]

F508del CFTR [3] = biological target: T1, F508del CFTR; assay: Western blot (Band B/C) in CSE-MEM cells; type: cell-based; design: University of North Carolina; host or cells: primary human bronchial epithelial cells, F508del/F508del donors; details: 24 h, compound alone
Method: For Western blot, U2OS EA-MEM F508del CFTR (CSE-MEM) cells were seeded in six well plates at a density of 2.5e6 cells/well on day 1 and incubated at 37°C and 5% CO2. Cells were treated with corrector compounds on day 2 and were lysed 24 h later. For the lysis, cells were washed with 1 ml PBS and incubated with 300 μl cell dissociation solution/well (Sigma, Cat No. C5789-100ML) for 15 min at 37°C and 5% CO2. Medium was collected and centrifuged for 5 min at 1,000 rpm and the supernatant removed. The pellet was re-suspended for 30 min on ice in the lysis buffer containing 1% NP-40, 0.5% sodium deoxycholate, 200 mM NaCl, 10 mM Tris pH 7.8, 1 mM EDTA and a protease inhibitor cocktail tablet from Roche (Cat No. 11873580001). For gel electrophoresis, 2.5 μl 10X Nupage reducing agent (Invitrogen, Cat No. NP0004) and 6 μl 4X Nupage sample buffer (Invitrogen, Cat No. NP0007) were added to 17 μl lysate and incubated for 15 min at 37°C. […]

F508del CFTR [4] = biological target: T1, F508del CFTR; assay: CSE-HRP assay (cell surface expression horseradish peroxidase assay); type: cell-based; design: University of North Carolina; host or cells: primary human bronchial epithelial cells, F508del/F508del donors; details: 24 h treatment; for % F508del PM Expression vs control: VX809 rescue = 100%
Method: CFBE41o^- TetON cells expressing HRP tagged F508del-CFTR ([Veit et al., 2012]) were seeded at a density of 2000 cells per well in white 384-well plates (Greiner). Medium containing 500 ng/ml doxycycline was used to induce expression of the F508del-CFTR–HRP construct. After 3 days, cells were treated with corrector and/or potentiator compounds and transferred to an incubator at 33°C. On day 4, cells were washed five times with PBS containing Ca^2+ and Mg^2+ using a Bio-Tek plate washer and incubated with a chemiluminescent HRP substrate (SuperSignal West Pico Chemiluminescent Substrate, Thermo Scientific) for 15 min. Chemiluminescence was measured using an Envision plate reader (Perkin Elmer).
as §1
For screening, cells were pre-incubated with compound for 24 h prior to read-out to allow sufficient time for de novo synthesis, and cellular trafficking of F508del-CFTR to reach steady state levels at the plasma membrane. A diverse set of 105,000 small molecules was screened in both cell assays in presence and absence of a fixed concentration (3 μM) of VX809. For the identification of suitable starting points we primarily focused on hits that increased the F508del CFTR surface expression under all conditions as exemplified by compound HIT1.

SMILES: COC1CCN(C2CCN(c3cc(C(=O)NS(=O)(=O)N(C)C)nc4c3c(C3CCC3)nn4-c3ccc(F)cc3)CC2)CC1 [GLPG2737]
- observed exposure in humans [1]: dose linear
- % F508del PM Expression vs control (F508del CFTR [2]; + 3 μM VX809): 415%
- EC50 (F508del CFTR [2]; no co-corrector): 707 nM
- % F508del PM Expression vs control (F508del CFTR [2]; no co-corrector): 197%
- Band C (mature complex-glycosylated F508del CFTR) (F508del CFTR [3]): confirmed
- % F508del PM Expression vs control (F508del CFTR [4]; + 3 μM VX809): 416%
- EC50 (F508del CFTR [4]; no co-corrector): 809 nM
- % F508del PM Expression vs control (F508del CFTR [4]; no co-corrector): 264%

Reference: article PMC6521598, “Identification of GLPG/ABBV-2737, a Novel Class of Corrector, Which Exerts Functional Synergy With Other CFTR Modulators” (Frontiers in Pharmacology, 2019)
